Key:
[1] = test system: thrombin formation in plasma samples from healthy volunteers and hemophilia A patients; assay: onset of thrombin formation in the inventive assay compared with the aPTT (onset of clotting by fibrin formation); type: biochemical; details: 250 μmol/l substrate added to aPTT activation (aluminium silicate, phospholipids, CaCl2); 80 plasma samples; FIG. 11
Excerpt: FIG. 11 compares the detection of the onset of coagulation by the Fibrin Formation method and by the inventive method. For this experiment 80 plasma samples from healthy volunteers and hemophilia A patients were clotted by the addition of a contact phase activator (aluminium silicate, Sigma, St. Louis, USA), phospholipids (rabbit brain cephalin, Pentapharm, Basle) and CaCl2 (Sigma, St. Louis, USA). This procedure is called “Activated Partial Thromboplastin time” (aPTT). The time from the start of the procedure till clotting is detected is the aPTT. The inventive assay was performed using the identical activation procedure as the aPTT. The difference between the two procedures was the addition of the fast chromogenic substrate • (H-D-CHG-Ala-Arg-pNa.2AcOH, 250 μmol/l, Pentapharm) and the fibrin polymerisation inhibitor H-Gly-Pro-Arg-Pro-OH AcOH (5 mg/ml, Pentapharm) in the inventive assay.

thrombin = thrombin (Homo sapiens, UniProt P00734); details: thrombin substrate, substrate-thrombin reaction; cited from earlier work

Substance	effect on onset of thrombin formation [1]	Km (thrombin) [µM]
H-D-CHG-Ala-Arg-pNa.2AcOH	delayed the onset of the thrombin formation	15.9
H-β-Ala-Gly-Arg-pNA°2AcOH		2000
